Data as given in US20230124862A1, “BISMUTH THIOL COMPOUNDS AND COMPOSITIONS AND METHODS OF TREATING MICROBIAL CO-INFECTIONS” (Microbion Corporation, priority 2020, published 2023).
Values after ≈ are worked out from the molar mass of the structure shown. Values joined by “and” are separate entries in the source; they are usually repeats but may differ in a detail not shown here. Equal values may be shown once. Read-outs that look alike come from different tables or passages of the source.

Legend:
[1] = tested on: E. coli ATCC 25922; conditions: cited from earlier work
[2] = format: in vivo, beagle dogs; conditions: dog, per animal and Grp Avg, sampling times not given
Protocol: Once adequately conditioned to the restraint device and face-masks, the animals are individually exposed to the test article aerosols. Animals receive a single face-mask inhalation exposure in a ramp study design to test article aerosols for up to 60 min. Animal observations during and post exposure determine the tolerance of inhaled BisEDT aerosols.
Blood Collections and Bioanalytical Analysis: Blood are collected for pharmacokinetic (PK) analysis prior to exposure, then at 4 hr (±5 min) post exposure, and again on Day 1, Day 2, Day 7 (pre- and 4 hr (±5 min)-post exposure), Day 8, Day 9, Day 10, Day 11, Day 12, Day 13, and Day 14. A total of 0.25 mL is collected at each timepoint. No PK blood is collected from the vehicle control (Group 1) animals; only animals exposed to BisEDT have blood collected for PK analysis. Collected samples are flash frozen without processing for shipment to Medpace for bioanalytical analysis. Additional blood is collected from all animals in all groups for hematology (1 mL) and clinical chemistry (1 mL) at baseline, Day 7 (pre-exposure), and again at euthanasia. Blood (2-2 mL) is collected from all animals at necropsy for coagulation analysis (d-Dimer, fibrinogen, PT, and PTT).
For hematology analyses, whole blood (1 ml) will be collected with vacutainers containing K3EDTA as an anticoagulant.
Hematology samples are analyzed by automated (ADVIA™ 120 Hematology System, Siemens Medical Solutions Diagnostics, Tarrytown, N.Y.) analyses. Disposition will be recorded on the sample processing form.

[3] = tested on: Enterobacteriaceae; assay: Broth microdilution MIC (Example 11); format: cell-based, E. coli, K. pneumoniae, Enterobacter cloacae
[4] = tested on: Burkholderia cepacia complex; assay: Checkerboard FIC/FICI assay; format: cell-based, Burkholderia spp.; conditions: during FIC testing
[5] = tested on: P. aeruginosa and A. baumannii; conditions: P. aeruginosa (MMX 103), QC; cited from earlier work
[6] = Group 2 (55-56 ug/kg lung deposited)
[7] = Group 4 (176-197 ug/kg lung deposited)

SMILES: C1C[S][Bi]([S]CC[S][Bi]2[S]CC[S]2)[S]1 [BisEDT, Bismuth-1,2-ethanedithiol]
- QC Range 24 hr ([1]; E. coli ATCC 25922, established QC range, 24 hr): 0.5-4
- Expected MIC: goal (acceptable range) ([1]; control strain ATCC 25922): 1 µg/mL
- BASO [2, 6]: 0.12 ^3/uL (2×) and 0.15 ^3/uL and 0.08 ^3/uL (2×) and 0.11 ^3/uL and 0.10 ^3/uL and 0.07 ^3/uL and 0.13 ^3/uL
- EOS [2, 6]: 0.30 ^3/uL and 0.45 ^3/uL and 0.39 ^3/uL and 0.14 ^3/uL and 0.09 ^3/uL and 0.06 ^3/uL and 0.22 ^3/uL and 0.27 ^3/uL and 0.23 ^3/uL
- HCT [2, 6]: 45.8% and 43.1% and 41.8% and 49.0% and 43.7% and 42.9% and 47.4% and 43.4% and 42.4%
- HGB [2, 6]: 15.6 g/dL and 15.0 g/dL (3×) and 14.2 g/dL and 16.4 g/dL and 14.3 g/dL (2×) and 16.0 g/dL
- LUC [2, 6]: 0.01 ^3/uL (5×) and 0.02 ^3/uL (4×)
- LYMP [2, 6]: 2.81 ^3/uL and 2.73 ^3/uL and 2.09 ^3/uL and 2.27 ^3/uL and 2.82 ^3/uL and 2.61 ^3/uL and 2.54 ^3/uL and 2.78 ^3/uL and 2.35 ^3/uL
- MCH [2, 6]: 22.8 pg (2×) and 23.2 pg (2×) and 22.7 pg and 22.3 pg (2×) and 21.9 pg and 23.0 pg
- MCHC [2, 6]: 34.1 g/dL (2×) and 34.9 g/dL and 33.4 g/dL and 34.4 g/dL and 33.2 g/dL and 33.8 g/dL and 34.7 g/dL and 33.7 g/dL
- MCV [2, 6]: 67.0 fL and 66.4 fL and 66.5 fL and 69.5 fL and 64.8 fL and 66.0 fL and 68.3 fL and 65.6 fL and 66.3 fL
- MONO [2, 6]: 0.63 ^3/uL and 0.67 ^3/uL and 0.53 ^3/uL and 0.50 ^3/uL and 0.51 ^3/uL (2×) and 0.57 ^3/uL and 0.59 ^3/uL and 0.52 ^3/uL
- NEUT [2, 6]: 5.31 ^3/uL and 5.11 ^3/uL and 2.88 ^3/uL and 3.96 ^3/uL and 4.26 ^3/uL and 4.83 ^3/uL and 4.64 ^3/uL and 4.69 ^3/uL and 3.86 ^3/uL
- PLT [2, 6]: 197 ^3/uL and 166 ^3/uL and 161 ^3/uL and 206 ^3/uL and 294 ^3/uL and 304 ^3/uL and 201.5 ^3/uL and 230.0 ^3/uL and 232.5 ^3/uL
- RBC [2, 6]: 6.83 ^6/uL and 6.49 ^6/uL and 6.28 ^6/uL and 7.05 ^6/uL and 6.74 ^6/uL and 6.50 ^6/uL and 6.94 ^6/uL and 6.62 ^6/uL and 6.39 ^6/uL
- RET % [2, 6]: 0.34% and 0.55% and 0.60% and 0.65% and 0.25% and 0.31% and 0.50% and 0.40% and 0.46%
- WBC [2, 6]: 9.18 ^3/uL and 9.13 ^3/uL and 5.99 ^3/uL and 6.99 ^3/uL and 7.77 ^3/uL and 8.10 ^3/uL and 8.09 ^3/uL and 8.45 ^3/uL and 7.05 ^3/uL
- BASO [2, 7]: 0.07 ^3/uL (3×) and 0.04 ^3/uL (2×) and 0.09 ^3/uL (3×) and 0.06 ^3/uL and 0.08 ^3/uL (2×) and 0.05 ^3/uL and 0.10 ^3/uL (3×)
- EOS [2, 7]: 0.48 ^3/uL and 0.50 ^3/uL and 0.35 ^3/uL and 0.95 ^3/uL and 0.77 ^3/uL and 0.47 ^3/uL and 0.72 ^3/uL and 0.64 ^3/uL and 0.41 ^3/uL and 0.18 ^3/uL and 0.13 ^3/uL and 0.19 ^3/uL (2×) and 0.21 ^3/uL and 0.17 ^3/uL
- HCT [2, 7]: 42.7% and 47.5% and 45.4% and 41.9% and 50.6% and 47.6% and 42.30% and 49.05% and 46.50% and 39.8% and 40.7% and 37.1% and 44.2% and 38.45% and 42.45%
- HGB [2, 7]: 14.8 g/dL and 16.0 g/dL and 14.6 g/dL and 14.7 g/dL and 16.6 g/dL and 15.4 g/dL and 14.75 g/dL and 16.30 g/dL and 15.00 g/dL and 13.7 g/dL and 13.8 g/dL and 12.8 g/dL and 14.3 g/dL and 13.25 g/dL and 14.05 g/dL
- LUC [2, 7]: 0.01 ^3/uL (7×) and 0.02 ^3/uL (8×)
- LYMP [2, 7]: 2.68 ^3/uL and 3.18 ^3/uL and 2.78 ^3/uL (2×) and 2.88 ^3/uL and 3.04 ^3/uL and 2.82 ^3/uL and 3.11 ^3/uL and 2.80 ^3/uL and 2.46 ^3/uL and 2.59 ^3/uL and 2.32 ^3/uL and 2.87 ^3/uL and 2.39 ^3/uL and 2.73 ^3/uL
- MCH [2, 7]: 23.0 pg and 23.4 pg and 22.9 pg (2×) and 22.8 pg and 23.1 pg and 22.90 pg (2×) and 23.25 pg and 24.1 pg and 20.9 pg and 21.0 pg and 24.2 pg and 22.55 pg (2×)
- MCHC [2, 7]: 34.7 g/dL and 33.6 g/dL and 32.2 g/dL and 35.2 g/dL and 32.8 g/dL and 32.4 g/dL (2×) and 34.95 g/dL and 33.20 g/dL (2×) and 32.30 g/dL and 34.4 g/dL and 34.0 g/dL and 34.6 g/dL and 34.50 g/dL
- MCV [2, 7]: 66.3 fL and 69.7 fL and 71.3 fL and 64.8 fL and 70.4 fL and 70.9 fL and 65.55 fL and 70.05 fL and 71.10 fL and 70.1 fL and 61.6 fL and 60.8 fL and 74.7 fL and 65.45 fL and 68.15 fL
- MONO [2, 7]: 0.39 ^3/uL (2×) and 0.37 ^3/uL (2×) and 0.49 ^3/uL and 0.50 ^3/uL (2×) and 0.44 ^3/uL (2×) and 0.38 ^3/uL and 0.73 ^3/uL and 0.45 ^3/uL and 0.61 ^3/uL and 0.59 ^3/uL and 0.56 ^3/uL
- NEUT [2, 7]: 4.61 ^3/uL and 5.96 ^3/uL (2×) and 6.30 ^3/uL and 5.98 ^3/uL and 5.95 ^3/uL and 6.74 ^3/uL and 5.30 ^3/uL and 6.52 ^3/uL and 6.73 ^3/uL and 4.11 ^3/uL and 3.60 ^3/uL and 7.39 ^3/uL and 5.17 ^3/uL and 5.75 ^3/uL
- PLT [2, 7]: 208 ^3/uL and 214 ^3/uL and 213 ^3/uL and 246 ^3/uL and 238 ^3/uL and 251 ^3/uL and 227.00 ^3/uL and 226.00 ^3/uL and 232.00 ^3/uL and 257 ^3/uL and 308 ^3/uL and 313 ^3/uL and 248 ^3/uL and 285.00 ^3/uL and 278.00 ^3/uL
- RBC [2, 7]: 6.44 ^6/uL and 6.81 ^6/uL and 6.37 ^6/uL and 6.46 ^6/uL and 7.19 ^6/uL and 6.71 ^6/uL and 6.45 ^6/uL and 7.00 ^6/uL and 6.54 ^6/uL and 5.68 ^6/uL and 6.61 ^6/uL and 6.11 ^6/uL and 5.92 ^6/uL and 5.90 ^6/uL and 6.27 ^6/uL
- RET % [2, 7]: 0.41% and 0.33% and 0.58% and 0.27% and 0.62% and 0.43% and 0.34% and 0.48% and 0.51% (2×) and 1.07% and 0.88% and 0.83% and 0.79% and 0.86%
- WBC [2, 7]: 8.23 ^3/uL and 10.09 ^3/uL and 9.86 ^3/uL and 10.41 ^3/uL and 10.37 ^3/uL and 10.50 ^3/uL and 9.32 ^3/uL (2×) and 10.23 ^3/uL and 10.18 ^3/uL and 10.21 ^3/uL and 7.45 ^3/uL and 6.63 ^3/uL and 11.18 ^3/uL and 8.42 ^3/uL

SMILES: C[C@@H](O)[C@H]1C(=O)N2C(C(=O)O)=C(S[C@@H]3CN[C@H](C(=O)N(C)C)C3)[C@H](C)[C@H]12 [MEM]
- MIC ([3]; E. cloacae (MMX 5981), NDM-1, LVX-R, MEM-R, CAZ-R, GEN-R): >64 µg/mL
- MIC ([3]; E. coli (MMX 102), QC): 0.03 µg/mL (≈ 0.0782 µM)
- MIC ([3]; E. coli (MMX 5980), NDM-1, LVX-R, MEM-R, CAZ-R, GEN-R): 32 µg/mL (≈ 83.4 µM)
- MIC ([3]; E. coli (MMX 8423), ESBL, LVX-R, CAZ-R, GEN-R): 0.03 µg/mL (≈ 0.0782 µM)
- MIC ([3]; E. coli (MMX 8424), ESBL, CAZ-R): 0.03 µg/mL (≈ 0.0782 µM)
- MIC ([3]; E. coli (MMX 8425), ESBL, LVX-R, CAZ-R, GEN-R): 0.015 µg/mL (≈ 0.0391 µM)
- MIC ([3]; K. pneumoniae (MMX 4622), KPC-2, MEM-R, CAZ-R): >64 µg/mL
- MIC ([3]; K. pneumoniae (MMX 4623), KPC-2, MEM-R, CAZ-R, GEN-R): >64 µg/mL
- MIC ([3]; K. pneumoniae (MMX 4653), KPC-3, LVX-R, MEM-R, CAZ-R): >64 µg/mL
- MIC ([3]; K. pneumoniae (MMX 4683), KPC-2, LVX-R, MEM-R, CAZ-R): 32 µg/mL (≈ 83.4 µM)
- MIC ([3]; K. pneumoniae (MMX 4684), ESBL, MEM-R): 8 µg/mL (≈ 20.9 µM)
- MIC ([3]; K. pneumoniae (MMX 4685), ESBL, LVX-R, MEM-R, CAZ-R): 4 µg/mL (≈ 10.4 µM)
- MIC ([3]; K. pneumoniae (MMX 4694), KPC-3, LVX-R, MEM-R, CAZ-R): 32 µg/mL (≈ 83.4 µM)
- MIC ([3]; K. pneumoniae (MMX 5979), NDM-1, LVX-R, MEM-R, CAZ-R, GEN-R): >64 µg/mL
- MIC ([4]; B. cenocepacia isolate 0548): 4 µg/mL
- MIC ([4]; B. cenocepacia isolate 0813): 9 µg/mL
- MIC ([4]; B. cepacia isolate 0546): 4 µg/mL
- MIC ([4]; B. cepacia isolate 1793): 4 µg/mL
- MIC ([4]; B. multivorans isolate 1795): 4 µg/mL
- CLSI Quality Control Range (MIC) [5]: (0.25-1)
